Source: US7501523B2, “Method for preparing cucurbiturils” (NewSouth Innovations Pty Limited, priority 2003, dated 2009)

Experiments:
[1] = association constant of methane in the cucurbituril; assay type: binding; conditions: relative to decamethylcucurbit[5]uril
[2] = association constant of dioxane in the cucurbituril; assay type: binding; conditions: relative to tetramethylcucurbit[2,4]uril
solubility in water = assay type: physicochemical; conditions: compared with unsubstituted cucurbit[6]uril

In the case of dimethylcucurbit[1,4]uril, the “association constant of methane” value [1] is reported as “three times higher”.

With unsubstituted cucurbit[6]uril the “association constant of dioxane” value [2] was “two times higher”.

In the case of α, δ-tetramethylcucurbit[2,4]uril, the solubility in water (solubility in water) is reported as “greater solubility in water than unsubstituted cucurbit[6]uril”.
